Source: patent publication US20140206624A1, “TREATMENT OF LEUKEMIA” (THE BRIGHAM AND WOMEN'S HOSPITAL, INC., priority 2011, published 2014)

Test system: leukemia-initiating cell (LIC)
Test: Limited dilution assay of LIC function in tertiary recipients
Type: in vivo, mouse
From the text: Using the same experimental set-up described in panels G leukemia BM cells Saline (MLL-AF9; FoxO1/3/4^+/+, panel H) versus pI-pC (MLL-AF9; FoxO1/3/4^Δ/Δ, panel I) were by isolated by flow cytometry and subsequently transplanted into tertiary recipients at various cell numbers: 300 (n=6), 3,000 (n=6), 30,000 (n=4) and 300,000 (n=4). Animals were then monitored weekly and euthanized upon presentation of external (moribund) and internal (e.g. WBC) signs of AML. The LIC frequencies of each condition are located in the bottom left corner (H. LICfreq^+/+=1:20,688 and I. LICfreq^Δ/Δ=1: 269,310).
As described in FIG. 5, MLL-AF9-induced AML was generated in a FoxO1/3/4^floxed; Mx1-Cre+ genetic background that was subsequently transplanted into secondary mice. Fourteen days post-transplant, secondary recipients were administered with saline or pI-pC and monitored for the development of AML (FIG. 5). BM cells recovered from saline (Ctrl) and pI-pC treated mice that succumbed to AML were then transplanted into tertiary recipients and evaluated for the development of AML (p=0.0061; n=8).
Log-Rank (Mantel-Cox) test was used to determine p values for all Kaplan-Meier survival curve analyses. Unpaired, two-tailed student's t tests were used for all analyses comparing two experimental groups. Poisson statistics was used to determine the leukemia-initiating cell frequency in vivo in FIGS. 9H and 9I as well as in vitro in FIGS. 4E and 4F.
To test whether loss of FoxO1/3/4 also diminished LIC function, a limited dilution assay was performed for leukemia cells immediately following FoxO1/3/4 deletion. Briefly, equal numbers of leukemic BM cells were recovered from FoxO1/3/4^floxed; Mx1-Cre+; MLL-AF9 mice seven days following pI-pC or saline treatment. Recipient mice were then injected with 300, 3,000, 30,000 or 300,000 cells of each condition. Ninety days following transplantation, 100%, 75% and 17% of mice that received 300,000, 30,000 or 3,000 cells, respectively, from saline-treated FoxO1/3/4^floxed; Mx1-Cre+; MLL-AF9 succumbed to AML corresponding to a LIC frequency of 1:20,688 (FIG. 9H). In contrast, 75% of mice transplanted with 300,000 pI-pC-treated FoxO1/3/4^floxed; Mx1-Cre+; MLL-AF9 donor cells developed AML whereas 100% of mice from each other cell dose were alive at day 90.

polyinosine-polycytidyline [pI-pC]
increase in median survival (300,000 donor cells, pI-pC vs saline-treated): ~2 fold
median survival (300,000 pI-pC-treated donor cells, n=4): 82 days
mice that developed AML (300,000 pI-pC-treated donor cells, ninety days following transplantation): 75%
mice alive at day 90 (each other cell dose (300, 3,000, 30,000) of pI-pC-treated donor cells): 100%
LIC frequency lower than the control group (pI-pC vs saline): 13 fold
latency in recipients of donor cells from mice of FIG. 9F (pI-pC vs saline-treated donors (FIG. 10B)): extended latency
